1 compound from US11318113B2, “Compounds for the treatment of diseases linked to mitochondrial reactive oxygen species (ROS) production” (OP2 DRUGS, priority 2015, dated 2022) can be followed below.

The test deals with isolated mitochondria from rat heart. As to the kind of experiment: Mitochondrial respiration / oxidative phosphorylation (oxygraph). It is filed as biochemical. To be noted: AOL 5 to 80 μM. Here is the method: Male Wistar rats (250-325 g; obtained from Janvier Labs, Le Genest-Saint-Isle, France) were killed by stunning and cervical dislocation, and the heart was quickly removed and washed in cold isolation medium containing 100 mM sucrose, 180 mM KCl, 50 mM Tris, 5 mM MgCl2, 10 mM EDTA, and 0.1% (w/v) deffated BSA (pH 7.2).
Isolation of heart mitochondria was performed in a cold chamber. Before homogenization, hearts (about 1.5 g) were minced with scissors and treated for 5 min in 5 mL of the same medium supplemented with protease (2 mg of bacterial proteinase type XXIV per mL of isolation buffer) with stirring. The tissue suspension was poured into a 50-ml glass Potter homogenizer, diluted with 20 mL of isolation buffer, then homogenized for 3 min using a motorized Teflon pestle. The homogenate was filtered through bolting cloth (Sefar Nitex) to remove debris, and centrifuged at 8,000 g for 10 minutes. The resulting pellet was rinsed with 5 mL of isolation buffer, resuspended in 25 mL of the same buffer, then subjected to low speed centrifugation (400 g) for 8 min. The resulting supernatant was centrifuged twice at 7,000 g for 15 min to yield a washed mitochondrial pellet that was gently resuspended in 150 μL of isolation buffer. Protein concentration was determined by the Bradford method (Sigma, kit # B6916) using BSA as standard. Mitochondria were kept on ice at a final concentration of 40-50 mg/mL for less than 5 h.
Oxygen consumption rates of heart mitochondria (0.1 mg/mL), incubated in the absence or presence of AOL at increasing doses (from 0 to 80 μM final concentration), were recorded polarographically under constant stirring at 25° C. using a high resolution oximeter (Oxygraph-2K, Oroboros Instruments, Austria). The respiration medium consisted in 140 mM sucrose, 100 mM KCl, 1 mM EGTA, 20 mM MgCl2, 10 mM KH2PO4, and 1 g/L (w/v) BSA essentially fatty acid free (pH 7.2).
This has been carried out by using the now classical oxygraph method. Mitochondria were first incubated with various AOL concentrations (5 to 80 μM) then respiratory substrate was added (substrate state, black curve), followed by a saturating ADP concentration to get the maximal oxidative phosphorylation rate (grey curve), and finally the addition of atractyloside (ATR) which inhibits the ADP/ATP translocator and gives the mitochondrial leak rate under non-phosphorylating conditions (FIG. 1A). The other panels of FIG. 1B-D presents the results obtained with different respiratory substrate combinations: glutamate+malate which feed electrons to complex I, succinate (+rotenone) for complex II and glutamate+malate+succinate to feed electrons to both complexes. […]

On to `COc1ccc(-c2cc(=S)ss2)cc1` [AOL, 5-(4-methoxyphenyl)-3H-1,2-dithiole-3-thione], for which the “mitochondrial oxidative phosphorylation and inner membrane integrity (leak rate, after ATR addition)” value is listed as “absence of effect”. Further, the “mitochondrial respiration under the different energetic states” value (glutamate and malate) is reported as “no statistical differences”. Where the note is “glutamate, malate and succinate”, the “mitochondrial respiration under the different energetic states” value was “no statistical differences”. For the same compound, the “mitochondrial respiration under the different energetic states” value (succinate (+rotenone)) is listed as “no statistical differences”.
